In patent US12624050B2, “Three fused ring derivative-containing salt or crystal form and pharmaceutical composition thereof” (Shanghai Hansoh Biomedical Co., Ltd., priority 2019, dated 2026):

How the values were obtained:
[1] = Solubility experiment in different media, thermodynamic solubility at 37°C; assay type: physicochemical; settings: for solubility after salt formation compared with the free compound: 37°C; for solubility at 24 h: thermodynamic from solid, thermodynamic solubility
Description: About 2 mg of crystal form A of ethanesulfonate salt of (S)-2-((2-((R)-4-(difluoromethyl)-2-oxothiazolidin-3-yl)-5,6-dihydrobenzo[f]imidazo[1,2-d][1,4]oxazepin-9-yl)amino)propionamide was suspended in different media for 24 hours.

[2] = Hygroscopicity experiment; assay type: physicochemical; settings: for crystal form (XRPD pattern) after humidification and dehumidification: 1 cycle under 0 to 95% relative humidity; for hygroscopic weight gain / hygroscopicity (in words): RH 80%
Description: Crystal form A of mesylate salt, crystal form D of sulfate salt and crystal form A of ethanesulfonate salt of (S)-2-((2-((R)-4-(difluoromethyl)-2-oxothiazolidin-3-yl)-5,6-dihydrobenzo[f]imidazo[1,2-d][1,4]oxazepin-9-yl)amino)propionamide were placed in saturated water vapor with different relative humidity, so that the compound and water vapor reached a dynamic equilibrium, and the percentage of hygroscopic weight gain of the compound after the equilibrium was calculated.

[3] = Polymorphic screening experiment; assay type: physicochemical; settings: slurrying, changing solvent and crystallization mode
Description: Organic solvents and water with a certain solubility was chosen to suspend the compound in the solvent system, and the mixture was stirred and slurried at room temperature for 1 week, and then centrifuged. The supernatant was discarded, and the solid was dried in vacuum (−0.1 Mpa) at 40° C. overnight. Then the XRPD of the solid was measured and compared with the XRPD of salt of the compound.

[4] = Stability experiment of the solids (60°C, RH 95%, light), HPLC; assay type: physicochemical; settings: light condition (5000 lx) for 10 days
Description: About 2 mg of crystal form A of mesylate salt, crystal form C of sulfate salt and crystal form A of ethanesulfonate salt of (S)-2-((2-((R)-4-(difluoromethyl)-2-oxothiazolidin-3-yl)-5,6-dihydrobenzo[f]imidazo[1,2-d][1,4]oxazepin-9-yl)amino)propionamide was placed in a sealed oven at 60° C., in an unsealed container at room temperature under RH 95% (saturated aqueous KNO3 solution) and in a light box (5000 lx±500 lx) and observed for 5 days and 10 days. The content of salt was determined by HPLC using the external standard method. Changes of related substance of salt in substances related to the salts were calculated by normalization of chromatography peak area.

[5] = PK studies in animals of salt crystal forms, intragastric 30 mg/kg; assay type: in vivo; settings: 0.5% HPMC K4M suspension; for exposure in rats (in words): 30 mg/kg; for AUC(0-inf) / AUC(0-t) / Cmax / Tmax / half-life / MRT inf: rat, in vivo, po, rats, 30 mg/kg (as free compound); for MRT inf: read-out: MRT0-∞
Description: 7.2.1 Crystal form A of mesylate salt, crystal form D of sulfate salt and crystal form A of ethanesulfonate salt of (S)-2-((2-((R)-4-(difluoromethyl)-2-oxothiazolidin-3-yl)-5,6-dihydrobenzo[f]imidazo[1,2-d][1,4]oxazepin-9-yl)amino)propionamide were evenly suspended in an aqueous solution containing 0.5% HPMC (hydroxypropyl methylcellulose) K4M, and then intragastrically administered to rats in duplicate at a dose of 30 mg/kg. The amount of the compound was all converted into the amount of the same compound (S)-2-((2-((R)-4-(difluoromethyl)-2-oxothiazolidin-3-yl)-5,6-dihydrobenzo[f]imidazo[1,2-d][1,4]oxazepin-9-yl)amino)propionamide.

Compound	crystal form (XRPD pattern) after humidification and dehumidification [2]	hygroscopic weight gain [2] [%]	hygroscopicity (in words) [2]	increase of new impurity compared with 0 days [4] [%]	exposure in rats (in words) [5]	AUC(0-inf) [5] [ng·h/mL]	AUC(0-t) [5] [ng·h/mL]	Cmax [5] [ng/mL]	Tmax [5] [h]	half-life [5] [h]	MRT inf [5] [h]	further results
CCS(=O)(=O)O.C[C@H](Nc1ccc2c(c1)OCCn1cc(N3C(=O)SC[C@H]3C(F)F)nc1-2)C(N)=O [crystal form A of ethanesulfonate salt, (S)-2-((2-((R)-4-(difluoromethyl)-2-oxothiazolidin-3-yl)-5,6-dihydrobenzo[f]imidazo[1,2-d][1,4]oxazepin-9-yl)amino)propionamide]	the crystal form did not change	0.207	slight hygroscopicity	0.134	higher exposures	10400	10000	1460	1	3.01	6.98	solubility after salt formation compared with the free compound ([1]; media of pH4 to 8 buffer): slightly lower solubility; solubility at 24 h ([1]; medium of pH 1, simulated gastric fluid, medium pH 1, 37° C.): 9370 µg/mL; solubility at 24 h ([1]; medium of pH 2, simulated gastric fluid, medium pH 2, 37° C.): 974 µg/mL; solubility at 24 h ([1]; medium of pH 3, aqueous buffer, medium pH 3, 37° C.): 268 µg/mL; solubility at 24 h ([1]; medium of pH 4, aqueous buffer, medium pH 4, 37° C.): 49 µg/mL; solubility at 24 h ([1]; medium of pH 5, aqueous buffer, medium pH 5, 37° C.): 20 µg/mL; solubility at 24 h ([1]; medium of pH 6, aqueous buffer, medium pH 6, 37° C.): 5 µg/mL; solubility at 24 h ([1]; medium of pH 7, aqueous buffer, medium pH 7, 37° C.): 12 µg/mL; solubility at 24 h ([1]; medium of pH 8, aqueous buffer, medium pH 8, 37° C.): 14 µg/mL; solubility after salt formation compared with the free compound ([1]; other media, most obviously in water): increased the solubility; solubility at 24 h ([1]; medium Fa (fasted-state simulated intestinal fluid, FaSSIF), 37° C.): 44 µg/mL; solubility at 24 h ([1]; medium Fe (fed-state simulated intestinal fluid, FeSSIF), 37° C.): 163 µg/mL; solubility at 24 h ([1]; medium SGF (simulated gastric fluid), 37° C.): 1150 µg/mL; solubility at 24 h ([1]; medium water, 37° C.): 608 µg/mL; crystal form obtained in polymorphic screening [3]: in crystal form A was obtained
C[C@H](Nc1ccc2c(c1)OCCn1cc(N3C(=O)SC[C@H]3C(F)F)nc1-2)C(N)=O.O=S(=O)(O)O [crystal form C of sulfate salt, (S)-2-((2-((R)-4-(difluoromethyl)-2-oxothiazolidin-3-yl)-5,6-dihydrobenzo[f]imidazo[1,2-d][1,4]oxazepin-9-yl)amino)propionamide]				0.172								
CS(=O)(=O)O.C[C@H](Nc1ccc2c(c1)OCCn1cc(N3C(=O)SC[C@H]3C(F)F)nc1-2)C(N)=O [crystal form A of mesylate salt, (S)-2-((2-((R)-4-(difluoromethyl)-2-oxothiazolidin-3-yl)-5,6-dihydrobenzo[f]imidazo[1,2-d][1,4]oxazepin-9-yl)amino)propionamide]	the crystal form changed	3.6	had hygroscopicity	0.523	higher exposures	10200	9840	1180	1	3.54	6.52	
